This is an account of results in publication PMC6437697 (Journal of Medicinal Chemistry, 2019).

What all share (assay): KINOMEscan
What all share (format): binding
Settings in all cases: read-out: % control activity remaining

The target of test [1] is T1, ABL1(E255K)-phosphorylated (Homo sapiens, UniProt P00519, E255K).
T1 construct: purchased Eurofins DiscoverX KINOMEscan

In test [2] the target is T2, ABL1(M351T)-phosphorylated (Homo sapiens, UniProt P00519, M351T).
T2 construct: purchased Eurofins DiscoverX KINOMEscan

A further test concerns the target T3, AMPK-alpha1 (Homo sapiens, UniProt Q13131).
T3 construct: purchased Eurofins DiscoverX KINOMEscan

The target of a further test is T4, BMPR2 (Homo sapiens, UniProt Q13873).
T4 construct: purchased Eurofins DiscoverX KINOMEscan
T4 sequence (Q13873 27-1038): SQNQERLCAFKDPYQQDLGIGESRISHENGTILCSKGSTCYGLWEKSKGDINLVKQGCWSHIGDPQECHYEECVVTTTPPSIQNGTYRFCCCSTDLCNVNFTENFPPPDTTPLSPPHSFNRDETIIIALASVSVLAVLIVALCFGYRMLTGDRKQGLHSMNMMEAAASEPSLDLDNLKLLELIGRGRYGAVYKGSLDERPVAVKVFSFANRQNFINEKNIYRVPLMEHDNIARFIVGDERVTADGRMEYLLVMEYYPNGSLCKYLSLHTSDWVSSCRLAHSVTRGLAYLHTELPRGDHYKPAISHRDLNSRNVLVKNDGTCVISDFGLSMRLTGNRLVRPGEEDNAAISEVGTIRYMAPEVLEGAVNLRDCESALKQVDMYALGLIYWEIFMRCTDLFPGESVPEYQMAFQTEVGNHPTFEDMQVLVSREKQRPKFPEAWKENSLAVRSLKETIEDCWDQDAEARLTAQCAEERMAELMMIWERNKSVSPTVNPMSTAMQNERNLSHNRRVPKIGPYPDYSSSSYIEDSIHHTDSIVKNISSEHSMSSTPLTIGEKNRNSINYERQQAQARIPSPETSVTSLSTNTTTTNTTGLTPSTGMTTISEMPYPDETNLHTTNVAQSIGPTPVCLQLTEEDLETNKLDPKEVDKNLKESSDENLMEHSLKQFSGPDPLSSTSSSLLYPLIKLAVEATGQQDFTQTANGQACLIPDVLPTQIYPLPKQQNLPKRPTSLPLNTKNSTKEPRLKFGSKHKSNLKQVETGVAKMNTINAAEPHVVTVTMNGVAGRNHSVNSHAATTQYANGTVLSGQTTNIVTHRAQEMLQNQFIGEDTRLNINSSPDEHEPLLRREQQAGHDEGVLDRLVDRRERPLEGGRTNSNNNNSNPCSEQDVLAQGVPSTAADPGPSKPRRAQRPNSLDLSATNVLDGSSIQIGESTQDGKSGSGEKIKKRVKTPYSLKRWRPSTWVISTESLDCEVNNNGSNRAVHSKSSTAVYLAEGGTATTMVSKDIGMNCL

Another test addresses T5, CDC2L2 (Homo sapiens, UniProt Q9UQ88).
T5 construct: purchased Eurofins DiscoverX KINOMEscan
T5 sequence (Q9UQ88 1-783): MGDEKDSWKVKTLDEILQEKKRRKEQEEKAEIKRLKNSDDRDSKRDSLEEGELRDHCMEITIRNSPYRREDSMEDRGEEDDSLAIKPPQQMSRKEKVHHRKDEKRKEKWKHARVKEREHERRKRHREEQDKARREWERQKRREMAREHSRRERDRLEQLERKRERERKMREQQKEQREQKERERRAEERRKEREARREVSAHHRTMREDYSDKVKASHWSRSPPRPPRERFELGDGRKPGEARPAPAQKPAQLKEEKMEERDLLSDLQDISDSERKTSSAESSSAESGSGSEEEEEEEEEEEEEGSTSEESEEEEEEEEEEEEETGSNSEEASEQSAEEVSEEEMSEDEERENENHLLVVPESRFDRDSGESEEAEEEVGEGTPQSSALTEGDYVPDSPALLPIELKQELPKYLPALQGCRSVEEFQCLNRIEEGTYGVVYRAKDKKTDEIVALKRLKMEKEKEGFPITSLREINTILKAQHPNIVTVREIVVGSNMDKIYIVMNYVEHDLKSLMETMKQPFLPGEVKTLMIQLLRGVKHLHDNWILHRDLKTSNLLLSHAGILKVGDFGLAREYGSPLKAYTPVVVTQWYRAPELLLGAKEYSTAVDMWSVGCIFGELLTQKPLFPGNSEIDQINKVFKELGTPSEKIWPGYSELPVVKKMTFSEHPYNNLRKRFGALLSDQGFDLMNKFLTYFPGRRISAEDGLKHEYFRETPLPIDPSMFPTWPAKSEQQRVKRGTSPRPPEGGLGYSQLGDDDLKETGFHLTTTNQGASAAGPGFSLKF

For another test, the target named is T6, INSRR (Homo sapiens, UniProt P14616).
T6 construct: purchased Eurofins DiscoverX KINOMEscan
T6 sequence (P14616 27-1297): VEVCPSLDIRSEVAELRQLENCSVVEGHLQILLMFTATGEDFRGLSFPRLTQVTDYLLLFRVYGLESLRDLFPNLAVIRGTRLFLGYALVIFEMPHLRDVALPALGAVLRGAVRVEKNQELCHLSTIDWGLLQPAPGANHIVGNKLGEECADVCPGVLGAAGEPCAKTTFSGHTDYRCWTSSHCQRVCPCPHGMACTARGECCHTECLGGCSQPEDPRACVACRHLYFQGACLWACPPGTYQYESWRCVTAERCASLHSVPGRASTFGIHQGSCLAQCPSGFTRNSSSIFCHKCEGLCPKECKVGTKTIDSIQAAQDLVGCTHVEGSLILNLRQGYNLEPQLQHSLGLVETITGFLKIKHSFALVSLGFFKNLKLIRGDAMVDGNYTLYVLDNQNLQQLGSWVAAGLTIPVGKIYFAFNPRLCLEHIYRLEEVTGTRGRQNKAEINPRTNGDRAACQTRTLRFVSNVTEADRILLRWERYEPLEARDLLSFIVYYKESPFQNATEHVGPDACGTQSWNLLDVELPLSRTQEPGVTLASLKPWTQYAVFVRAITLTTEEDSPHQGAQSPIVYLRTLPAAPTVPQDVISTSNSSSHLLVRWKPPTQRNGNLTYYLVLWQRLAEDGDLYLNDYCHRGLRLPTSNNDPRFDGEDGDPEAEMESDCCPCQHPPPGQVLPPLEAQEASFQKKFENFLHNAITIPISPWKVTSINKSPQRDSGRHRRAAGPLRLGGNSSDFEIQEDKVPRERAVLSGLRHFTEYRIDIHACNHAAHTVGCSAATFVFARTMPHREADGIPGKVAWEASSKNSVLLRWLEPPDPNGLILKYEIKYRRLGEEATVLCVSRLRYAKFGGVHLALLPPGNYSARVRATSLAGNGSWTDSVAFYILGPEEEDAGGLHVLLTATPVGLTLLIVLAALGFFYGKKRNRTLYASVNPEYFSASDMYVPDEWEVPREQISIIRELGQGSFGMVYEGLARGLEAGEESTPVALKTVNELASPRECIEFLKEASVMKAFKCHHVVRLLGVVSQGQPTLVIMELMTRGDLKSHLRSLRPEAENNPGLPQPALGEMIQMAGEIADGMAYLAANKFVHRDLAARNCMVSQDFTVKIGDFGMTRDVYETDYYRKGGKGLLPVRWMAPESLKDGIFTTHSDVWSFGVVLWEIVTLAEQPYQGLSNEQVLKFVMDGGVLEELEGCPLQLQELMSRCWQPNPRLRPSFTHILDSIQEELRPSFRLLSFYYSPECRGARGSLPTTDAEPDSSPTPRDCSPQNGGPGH

The next test deals with T7, LCK (Homo sapiens, UniProt P06239).
T7 construct: purchased Eurofins DiscoverX KINOMEscan
T7 sequence (P06239 whole entry): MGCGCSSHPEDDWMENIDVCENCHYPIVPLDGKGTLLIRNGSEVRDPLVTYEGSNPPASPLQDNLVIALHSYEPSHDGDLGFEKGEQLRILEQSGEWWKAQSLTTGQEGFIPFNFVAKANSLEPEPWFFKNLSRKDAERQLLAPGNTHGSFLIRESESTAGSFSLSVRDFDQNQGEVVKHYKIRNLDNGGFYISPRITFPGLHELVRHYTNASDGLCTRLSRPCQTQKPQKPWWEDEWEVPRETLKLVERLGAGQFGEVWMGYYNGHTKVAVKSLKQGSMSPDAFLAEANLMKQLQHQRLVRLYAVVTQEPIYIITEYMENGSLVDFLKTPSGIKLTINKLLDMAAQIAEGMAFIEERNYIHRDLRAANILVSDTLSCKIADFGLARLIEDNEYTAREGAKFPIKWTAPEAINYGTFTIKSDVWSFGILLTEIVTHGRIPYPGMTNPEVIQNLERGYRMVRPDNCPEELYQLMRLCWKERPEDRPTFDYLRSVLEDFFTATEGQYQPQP

The target in the next test is T8, PRKG2 (Homo sapiens, UniProt Q13237).
T8 construct: purchased Eurofins DiscoverX KINOMEscan
T8 sequence (Q13237 1-762): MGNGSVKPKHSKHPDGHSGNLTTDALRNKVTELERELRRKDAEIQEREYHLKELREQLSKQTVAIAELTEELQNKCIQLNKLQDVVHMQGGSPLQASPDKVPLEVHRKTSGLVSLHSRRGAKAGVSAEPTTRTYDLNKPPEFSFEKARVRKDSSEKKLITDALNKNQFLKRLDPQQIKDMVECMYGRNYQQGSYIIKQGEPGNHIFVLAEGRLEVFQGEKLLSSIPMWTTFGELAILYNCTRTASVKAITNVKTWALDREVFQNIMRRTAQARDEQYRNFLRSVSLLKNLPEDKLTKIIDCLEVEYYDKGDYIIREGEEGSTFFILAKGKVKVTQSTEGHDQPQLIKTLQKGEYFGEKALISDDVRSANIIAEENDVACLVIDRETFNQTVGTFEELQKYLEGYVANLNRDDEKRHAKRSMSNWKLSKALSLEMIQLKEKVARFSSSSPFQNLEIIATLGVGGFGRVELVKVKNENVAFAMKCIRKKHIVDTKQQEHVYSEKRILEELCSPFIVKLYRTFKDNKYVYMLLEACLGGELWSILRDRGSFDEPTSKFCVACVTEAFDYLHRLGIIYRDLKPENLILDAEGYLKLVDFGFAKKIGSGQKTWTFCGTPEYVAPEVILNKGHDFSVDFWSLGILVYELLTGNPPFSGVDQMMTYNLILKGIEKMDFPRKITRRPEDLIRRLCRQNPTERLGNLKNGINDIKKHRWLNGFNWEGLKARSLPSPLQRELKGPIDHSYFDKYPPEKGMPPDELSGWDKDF

In another test the target is T9, RET (Homo sapiens, UniProt P07949).
T9 construct: purchased Eurofins DiscoverX KINOMEscan
T9 sequence (P07949 29-1114): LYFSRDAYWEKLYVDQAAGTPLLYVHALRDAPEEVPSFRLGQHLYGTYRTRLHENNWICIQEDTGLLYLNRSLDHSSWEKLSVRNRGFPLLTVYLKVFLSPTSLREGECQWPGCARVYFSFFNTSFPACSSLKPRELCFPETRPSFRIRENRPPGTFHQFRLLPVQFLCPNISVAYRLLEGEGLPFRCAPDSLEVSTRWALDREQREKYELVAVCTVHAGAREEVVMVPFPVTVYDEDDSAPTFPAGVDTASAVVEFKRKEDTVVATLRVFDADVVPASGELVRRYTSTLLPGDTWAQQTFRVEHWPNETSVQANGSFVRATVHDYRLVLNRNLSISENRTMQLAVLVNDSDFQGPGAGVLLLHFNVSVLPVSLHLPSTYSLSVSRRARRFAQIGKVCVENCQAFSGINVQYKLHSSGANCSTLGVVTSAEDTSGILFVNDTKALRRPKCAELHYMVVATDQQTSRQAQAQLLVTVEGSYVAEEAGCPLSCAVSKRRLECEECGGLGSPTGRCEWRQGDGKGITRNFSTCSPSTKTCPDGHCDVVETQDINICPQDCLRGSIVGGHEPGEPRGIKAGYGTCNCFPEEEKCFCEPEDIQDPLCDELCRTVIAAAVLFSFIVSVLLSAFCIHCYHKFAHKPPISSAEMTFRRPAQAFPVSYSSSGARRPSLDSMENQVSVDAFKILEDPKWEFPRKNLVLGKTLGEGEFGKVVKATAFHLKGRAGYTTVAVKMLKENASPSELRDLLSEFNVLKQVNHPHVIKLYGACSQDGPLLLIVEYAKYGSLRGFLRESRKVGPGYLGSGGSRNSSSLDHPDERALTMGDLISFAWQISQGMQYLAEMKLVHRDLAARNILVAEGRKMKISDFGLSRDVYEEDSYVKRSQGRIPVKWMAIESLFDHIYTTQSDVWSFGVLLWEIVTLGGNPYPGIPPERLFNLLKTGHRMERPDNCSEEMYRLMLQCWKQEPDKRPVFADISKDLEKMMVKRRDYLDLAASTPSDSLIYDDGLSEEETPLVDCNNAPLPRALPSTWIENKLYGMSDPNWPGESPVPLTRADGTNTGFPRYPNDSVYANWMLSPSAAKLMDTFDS

The next test concerns the target T10, WEE2 (Homo sapiens, UniProt P0C1S8).
T10 construct: purchased Eurofins DiscoverX KINOMEscan

T10 sequence (P0C1S8 whole entry): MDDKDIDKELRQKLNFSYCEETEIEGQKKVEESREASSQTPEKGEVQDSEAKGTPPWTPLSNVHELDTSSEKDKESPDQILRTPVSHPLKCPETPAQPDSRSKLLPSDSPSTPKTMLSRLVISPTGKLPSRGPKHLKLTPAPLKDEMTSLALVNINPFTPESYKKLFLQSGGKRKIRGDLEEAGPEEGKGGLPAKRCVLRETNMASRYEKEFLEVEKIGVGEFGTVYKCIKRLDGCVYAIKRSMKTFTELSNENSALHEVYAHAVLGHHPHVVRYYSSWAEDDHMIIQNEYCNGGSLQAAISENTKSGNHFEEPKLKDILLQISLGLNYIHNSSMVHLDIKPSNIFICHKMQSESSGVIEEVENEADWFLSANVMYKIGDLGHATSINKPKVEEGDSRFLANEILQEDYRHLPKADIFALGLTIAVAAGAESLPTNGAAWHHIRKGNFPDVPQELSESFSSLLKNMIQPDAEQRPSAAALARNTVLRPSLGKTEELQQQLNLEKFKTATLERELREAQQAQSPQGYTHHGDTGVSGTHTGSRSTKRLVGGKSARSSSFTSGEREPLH
T3 sequence (Q13131 whole entry): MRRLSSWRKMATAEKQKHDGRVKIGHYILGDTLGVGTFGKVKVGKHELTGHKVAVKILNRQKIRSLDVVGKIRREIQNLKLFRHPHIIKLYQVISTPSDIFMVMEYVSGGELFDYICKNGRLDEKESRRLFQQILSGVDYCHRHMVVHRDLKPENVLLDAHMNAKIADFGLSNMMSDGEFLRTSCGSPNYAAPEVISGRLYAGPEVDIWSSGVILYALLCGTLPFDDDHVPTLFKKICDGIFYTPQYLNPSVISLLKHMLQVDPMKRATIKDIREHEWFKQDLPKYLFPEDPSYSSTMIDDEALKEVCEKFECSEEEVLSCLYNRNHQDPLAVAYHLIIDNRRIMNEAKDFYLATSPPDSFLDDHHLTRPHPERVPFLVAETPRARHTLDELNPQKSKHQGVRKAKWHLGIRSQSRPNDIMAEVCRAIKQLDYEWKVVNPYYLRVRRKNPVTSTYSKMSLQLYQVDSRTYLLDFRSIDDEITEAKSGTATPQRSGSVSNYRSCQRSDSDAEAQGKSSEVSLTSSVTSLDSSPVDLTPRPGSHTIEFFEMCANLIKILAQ

For the compound `Clc1cc(NCC2CC2)c2ncc(-c3ccc4[nH]ncc4c3)n2n1` [compound 2, 6-Chloro-N-(cyclopropylmethyl)-3-(1H-indazol-5-yl)imidazo[1,2-b]pyridazin-8-amine], the remaining binding at 1 µM stood at 100% in test [1]; 91% in [2]; 96% at AMPK-alpha1; 96% on BMPR2; 100% at CDC2L2; 96% at INSRR. The remaining binding at 1 µM at LCK is 100%; at PRKG2, 84%; on RET, 100%; on WEE2 it was 94%.
As for `O=C(CN1CCOCC1)N[C@H]1CC[C@H](Nc2cc(Cl)nn3c(-c4ccc5[nH]ncc5c4)cnc23)CC1` [compound 26], the remaining binding at 1 µM in test [1] is 56%; in test [2], 57%; on AMPK-alpha1 it was 85%; at BMPR2, 100%; on CDC2L2, 99%; at INSRR, 85%. Moreover, the remaining binding at 1 µM amounted to 87% at LCK, 64% on PRKG2, 100% at RET and 87% on WEE2.
In the case of `CN1CCC(CNc2cc(Cl)nn3c(-c4cc5nc(Nc6ccccc6)[nH]c5cc4F)cnc23)CC1` [compound 31, 6-Chloro-3-(6-fluoro-2-(phenylamino)-1H-benzo[d]imidazol-5-yl)-N-((1-methylpiperidin-4-yl)methyl)imidazo[1,2-b]pyridazin-8-amine], the remaining binding at 1 µM in [1] was found to be 86%; in test [2], 78%; on AMPK-alpha1, 94%; on BMPR2, 91%; on CDC2L2, 90%; on INSRR it was 100%. For the same compound, the remaining binding at 1 µM at LCK was 82%; on PRKG2, 64%; on RET it was 96%; on WEE2 it was 97%.
